For assay [1], the system named is HCT-116 (colon carcinoma). Kind of assay: SRB anticancer assay, HCT-116. The assay is classed as cell-based, human. To be noted: for IC50: SRB stain, 48 hours at 37° C., absorbance 564 nm. From the text:
(§1) Investigation for the bio-reactivity of H2L and PdL, as anticancer candidates, was achieved versus well documented human cancer cell lines, as three cancers entitled HepG2, MCF-7, and HCT-116, using the simplest tool SRB (sulforhodamine-B-stain). In particular, the most popular anticancer referenced drug (vinblastine) was used in the anticancer assay (the inhibited action of the cancer cells) to compare its bio-reactivity versus that one of H2L and PdL.
(§2) With HepG-2 (Hepatocellular carcinoma), HCT-116 (colon carcinoma), and MCF7 (breast adenocarcinoma), as human cancer cell lines, the antiproliferative reactivity of H2L and PdL was studied against the growth of these cancer cells by applying a spectrometric tool. Using SRB (sulforhodamine-B-stain) was essential in the spectrometric studies at a specific wavelength (564 nm, the optimized absorption wavelength). Recording the corresponded absorbance (A) at 564 nm was accomplished using a UV/Vis. spectrophotometer, UV-1800 mode Shimadzu with a mono-cell holder. With plates of 96-multiwell model, the culture of the current human cancer cell lines of 10^4 cells per well were accomplished followed by a gentle addition of DMSO solution of H2L or PdL the cultured wells of the cancer cell lines.
(§3) The resulting mixed solution of H2L or PdL solution with the subjected cancer cell line of human in SRB was assigned in incubated isolated atmosphere for 48 hours at 37° C. The isolated atmosphere was accomplished by CO2 gas bubbling with v/v […].
(§4) The same procedure was followed with vinblastine, as vinblastine was subjected as a reference anticancer agent to compare its reactivity against that one of the studied H2L and PdL. For WI-38, as the normal human fetal lung fibroblast, the pervious procedure of the cancer cell lines was applied for H2L and PdL to evaluate their selectivity index. Using Eq. 1, below, to derive the inhibited potential of H2L or PdL against the growth of the human cancer and normal cell lines through their effective concentration in M (IC50, the half effective concentration of H2L or PdL): […]
(Sulforhodamine B stains cellular protein and so reports cell mass.)

Assay [2] deals with MCF7 (breast adenocarcinoma). The assay is described as follows: SRB anticancer assay, MCF-7. Type of assay: cell-based, human. To be noted: for IC50: SRB stain, 48 hours at 37° C., absorbance 564 nm.
Excerpt: as §1, §2, §3, §4

The subject of assay [3] is HepG-2 (Hepatocellular carcinoma). The assay is described as follows: SRB anticancer assay, HepG-2. Type of assay: cell-based, human. To be noted: for IC50: SRB stain, 48 hours at 37° C., absorbance 564 nm.
Excerpt: as §1, §2, §3, §4

Assay [4] relates to WI-38, normal human fetal lung fibroblast. Kind of assay: SRB assay on normal cell line WI-38. The assay is classed as cell-based. To be noted: SRB stain, 48 hours at 37° C.
Excerpt: as §1
as §2, with “lines. […]” for “lines.”

We go through two compounds from patent US11999755B1, “Effective anticancer drug candidate of dinuclear palladium (II) bis-dihydrozone malonyl complex” (KING FAISAL UNIVERSITY, priority 2024, dated 2024).

Each structure is given as a SMILES string.

For `O=C(CC(=O)NN=C1C(=O)Nc2ccccc21)NN=C1C(=O)Nc2ccccc21` [H2L, malonyl dihydrazone-isatin ligand], the IC50 (in general, the point on the concentration scale where inhibition reaches its midpoint) is 49.6 µM in assay [1], 43.1 µM in assay [2], 48.6 µM in assay [3] and 133 ± 0.75 µM in assay [4]. Moreover, the “Selectivity index HCT-116” value in assay [1] (normal WI-38 versus HCT-116) came to 2.71. Also, in assay [2] (normal WI-38 versus MCF-7), the “Selectivity index MCF-7” value amounted to 3.09. In assay [3] (normal WI-38 versus HepG-2), the “Selectivity index HepG-2” value is 2.77.
Turning to `CC[C@]1(O)C[C@@H]2CN(CCc3c([nH]c4ccccc34)[C@@](C(=O)OC)(c3cc4c(cc3OC)N(C)[C@H]3[C@@](O)(C(=O)OC)[C@H](OC(C)=O)[C@]5(CC)C=CCN6CC[C@]43[C@@H]65)C2)C1` [Vinblastine, vinblastine, reference compound], the IC50 in assay [1] (Homo sapiens, HCT-116) is 13.3 ± 0.11 µM; in assay [2] (Homo sapiens, MCF7), 4.12 ± 0.14 µM; in assay [3] (Homo sapiens, HepG2) it was 7.5 ± 0.1 µM.
